The test system of one data set is THP-1. As to the kind of experiment: Antileukemic activity against human THP-1 cells assessed as inhibition of cell proliferation by MTS assay. Format: functional, cell-based. (Formazan colour is commonly taken as a measure of viable cells.)
The subject of another data set is MV4-11. As to the kind of experiment: Antileukemic activity against human MV4-11 cells assessed as inhibition of cell proliferation by MTS assay. Type of data set: functional, cell-based.
Data set [1] in a line: Cytotoxicity against PBMC (unknown origin) assessed as cell survival at 20 uM relative to control. The note with it: read-out: Survival. Format: toxicity, cell-based.

As for `O=C(Nc1ncc(Cc2cccc(Br)c2)s1)N1CCN(c2cccc(Cl)n2)CC1`, the IC50 in the data set on THP-1 was over 20 µM; in the data set with MV4-11, 16.8 µM.

On to `O=C(Nc1ncc(Cc2cccc(Br)c2)s1)N1CCN(c2ccccc2)CC1`, for which the IC50 is 4.08 µM with THP-1 and 1.31 µM with MV4-11.

With `O=C(Nc1ncc(Cc2ccc(Br)cc2)s1)N1CCN(c2ccc(O)cc2)CC1`, the IC50 with THP-1 and in the data set on MV4-11 was over 20 µM in each case.

For the compound `O=C(Nc1ncc(Cc2cccc(Br)c2)s1)N1CCCN(c2ccc(Cl)cc2)CC1`, the IC50 in the data set with THP-1 and in the data set with MV4-11 was over 20 µM each time.

Regarding `CC1CCN(C(=O)Nc2ncc(Cc3ccccc3Br)s2)CC1`, the results for the IC50 with THP-1 and in the data set on MV4-11 were 3.84 µM and 1.89 µM, respectively.

Consider `Cc1cccc(Cc2cnc(NC(=O)N3CCN(c4ccc(Cl)cc4)CC3)s2)c1`, for which the values for the IC50 in the data set on THP-1 and in the data set with MV4-11 were over 20 µM and 0.21 µM, respectively.

For the compound `O=C(Nc1ncc(Cc2ccccc2Br)s1)N1CCN(c2ccc(Cl)cc2)CC1`, the 50% inhibitory concentration (IC50) was determined as 1.3 µM with THP-1 and 1.12 µM in the data set with MV4-11.

As for `O=C(Nc1ncc(Cc2cccc(Br)c2)s1)N1CCN(c2cc(Cl)cc(Cl)c2)CC1`, the IC50 in the data set on THP-1 and in the data set with MV4-11 was over 20 µM throughout.

On to `O=C(Nc1ncc(Cc2cccc(Br)c2)s1)N1CCN(C(=O)c2ccc(Cl)cc2)CC1`, for which the IC50 in the data set on THP-1 and in the data set on MV4-11 was over 20 µM each time.

Turning to `O=C(Nc1ncc(Cc2cccc(OCCCN3CCOCC3)c2)s1)N1CCN(c2ccc(Cl)cc2)CC1`, the IC50 in the data set with THP-1 and in the data set on MV4-11 was over 20 µM each time.

Regarding `O=C(Nc1ncc(Cc2cccc(Br)c2)s1)N1CCN(c2cccc(Cl)c2)CC1`, the IC50 with THP-1 was over 20 µM; with MV4-11, 9.98 µM.

`O=C(Nc1ncc(Cc2cccc(Br)c2)s1)N1CC2CC1CN2c1ccc(Cl)cc1` (configuration not stated): the half-maximal inhibitory concentration (IC50) in the data set with THP-1 was over 20 µM; in the data set on MV4-11, 11.1 µM.

In the case of `O=C(Nc1ncc(Cc2cccc(O)c2)s1)N1CCN(c2ccc(Cl)cc2)CC1`, the figures for the 50% inhibitory concentration (IC50) in the data set on THP-1 and in the data set with MV4-11 were 0.11 µM and 0.14 µM, respectively.

For the compound `O=C(Nc1ncc(Cc2ccc(Br)cc2)s1)N1CCN(c2ccccc2)CC1`, the IC50 with THP-1 was determined as 4.05 µM; with MV4-11, 1.85 µM.

For the compound `O=C(Nc1ncc(Cc2cccc(Br)c2)s1)N1CCN(Cc2ccc(Cl)cc2)CC1`, the IC50 in the data set on THP-1 and in the data set with MV4-11 was over 20 µM each time.

Take `O=C(Nc1ncc(Cc2cccc(Br)c2)s1)N1C2CC[C@@H]1CN(c1ccc(Cl)cc1)C2`: the IC50 is over 20 µM in the data set with THP-1 and 9.73 µM in the data set on MV4-11.

With `CCOc1cccc(Cc2cnc(NC(=O)N3CCN(c4ccc(Cl)cc4)CC3)s2)c1`, the IC50 in the data set with THP-1 and in the data set on MV4-11 was over 20 µM each time.

For the compound `Cc1cccc(N2CCN(C(=O)Nc3ncc(Cc4cccc(Br)c4)s3)CC2)n1`, the IC50 in the data set on THP-1 and in the data set with MV4-11 was over 20 µM in each case.

Turning to `CC1CN(C(=O)Nc2ncc(Cc3cccc(Br)c3)s2)CCN1c1ccc(Cl)cc1` (configuration not stated), the values for the IC50 in the data set with THP-1 and in the data set with MV4-11 were over 20 µM and 14.8 µM, respectively.

As for `O=C(Nc1ncc(Cc2ccc(C(F)(F)F)cc2)s1)N1CCN(c2ccc(Cl)cc2)CC1`, the values for the half-maximal inhibitory concentration (IC50) with THP-1 and in the data set with MV4-11 were 0.18 µM and 0.23 µM, respectively.

In the case of `O=C(Nc1ncc(Cc2cccc(C(F)(F)F)c2)s1)N1CCN(c2ccc(Cl)cc2)CC1`, the IC50 was determined as 0.37 µM in the data set on THP-1 and 0.3 µM in the data set with MV4-11.

On to `O=C(Nc1ncc(Cc2ccccc2C(F)(F)F)s1)N1CCN(c2ccc(Cl)cc2)CC1`, for which the IC50 in the data set with THP-1 is over 20 µM; with MV4-11 it was 4.99 µM.

Turning to `CCc1nc(C(N)=O)c(Nc2ccc(N3CCC(N4CCN(C)CC4)CC3)c(OC)c2)nc1NC1CCOCC1` [GILTERITINIB], the IC50 in the data set with MV4-11 is 0.024 µM.

For the compound `CC1CCN(C(=O)Nc2ncc(Cc3cccc(Br)c3)s2)CC1`, the concentration for half-maximal inhibition (IC50) in the data set with THP-1 was 3.24 µM; in the data set with MV4-11, 2.41 µM.

For `O=C(Nc1ncc(Cc2cccc(Cl)c2)s1)N1CCN(c2ccc(Cl)cc2)CC1`, the IC50 with THP-1 came out at 0.2 µM; with MV4-11, 0.39 µM.

Turning to `Nc1ccn([C@@H]2O[C@H](CO)[C@@H](O)[C@@H]2O)c(=O)n1` [CYTARABINE], the half-inhibitory concentration (IC50) in the data set with THP-1 was 0.46 µM.

Take `Cc1ccc(N2CCN(C(=O)Nc3ncc(Cc4ccc(Br)cc4)s3)CC2)cc1`: the IC50 turned out to be 1.78 µM in the data set with THP-1 and 1.11 µM with MV4-11.

Take `COc1cccc(Cc2cnc(NC(=O)N3CCN(c4ccc(Cl)cc4)CC3)s2)c1`: the IC50 with THP-1 is 0.21 µM; with MV4-11, 0.13 µM.

Take `CC(C)Oc1cccc(Cc2cnc(NC(=O)N3CCN(c4ccc(Cl)cc4)CC3)s2)c1`: the half-maximal inhibitory concentration (IC50) in the data set on THP-1 and in the data set on MV4-11 was over 20 µM throughout.

Regarding `COCc1cccc(Cc2cnc(NC(=O)N3CCN(c4ccc(Cl)cc4)CC3)s2)c1`, the 50% inhibitory concentration (IC50) in the data set with THP-1 and in the data set with MV4-11 was 0.13 µM each time.

Consider `O=C(Nc1ncc(Cc2cccc(Br)c2)s1)N1CCN(c2ccc(Cl)cc2)CC1`, for which the IC50 in the data set with THP-1 was found to be 0.33 µM; with MV4-11, 0.26 µM.

Regarding `O=C(Nc1ncc(Cc2cccc(Br)c2)s1)N1CCN(c2cccc(F)n2)CC1`, the concentration for half-maximal inhibition (IC50) with THP-1 and with MV4-11 was over 20 µM each time.

`O=C(Nc1ncc(Cc2cccc(Br)c2)s1)N1CCN(c2ccc(C(F)(F)F)cc2)CC1`: the IC50 was over 20 µM in the data set with THP-1 and 4.5 µM in the data set with MV4-11.

Consider `COc1ccc(Cc2cnc(NC(=O)N3CCN(c4ccc(Cl)cc4)CC3)s2)cc1`, for which the 50% inhibitory concentration (IC50) came out at 0.029 µM in the data set on THP-1 and 0.098 µM with MV4-11. Moreover, in data set [1], the viability at 20 µM worked out at 91.7%.

On to `O=C(Nc1ncc(Cc2cccc(Br)c2)s1)N1CCN(c2cc(C(F)(F)F)cc(C(F)(F)F)c2)CC1`, for which the half-inhibitory concentration (IC50) in the data set on THP-1 and with MV4-11 was over 20 µM each time.

Turning to `Cc1ccc(N2CCN(C(=O)Nc3ncc(Cc4ccccc4Br)s3)CC2)cc1`, the results for the IC50 in the data set on THP-1 and with MV4-11 were 9.58 µM and 2.8 µM, respectively.

Turning to `O=C(Nc1ncc(Cc2ccc(Cl)cc2)s1)N1CCN(c2ccc(Cl)cc2)CC1`, the half-maximal inhibitory concentration (IC50) in the data set on THP-1 is 0.17 µM; in the data set with MV4-11 it was 0.21 µM.

For the compound `N#Cc1ccc(N2CCN(C(=O)Nc3ncc(Cc4cccc(Br)c4)s3)CC2)cc1`, the half-maximal inhibitory concentration (IC50) amounted to 0.66 µM with THP-1 and 0.89 µM with MV4-11.

For the compound `O=C(Nc1ncc(Cc2ccc(Br)cc2)s1)N1CCN(c2ccc(Cl)cc2)CC1`, the half-inhibitory concentration (IC50) was determined as 0.37 µM with THP-1 and 0.55 µM in the data set with MV4-11.

Regarding `O=C(Nc1ncc(Cc2cccc(Br)c2)s1)N1CCN(c2cccc(Br)n2)CC1`, the 50% inhibitory concentration (IC50) in the data set with THP-1 and in the data set on MV4-11 was over 20 µM each time.

For `O=C(Nc1ncc(Cc2cccc(Br)c2)s1)N1CCN(c2ccc(Cl)cn2)CC1`, the values for the IC50 with THP-1 and with MV4-11 were 0.68 µM and 0.62 µM, respectively.

Take `CC1CCN(C(=O)Nc2ncc(Cc3ccc(Br)cc3)s2)CC1`: the IC50 was 1.39 µM with THP-1 and 1.49 µM in the data set on MV4-11.

Regarding `O=C(Nc1ncc(Cc2cccc(Br)c2)s1)N1CCN(S(=O)(=O)c2ccc(Cl)cc2)CC1`, the IC50 in the data set on THP-1 and in the data set on MV4-11 was over 20 µM each time.

In the case of `Cc1ccnc(N2CCN(C(=O)Nc3ncc(Cc4cccc(Br)c4)s3)CC2)c1`, the IC50 is over 20 µM in the data set with THP-1 and 5.31 µM in the data set with MV4-11.

On to `COc1ccccc1Cc1cnc(NC(=O)N2CCN(c3ccc(Cl)cc3)CC2)s1`, for which the results for the IC50 in the data set on THP-1 and with MV4-11 were 0.36 µM and 0.19 µM, respectively.

As for `O=C(Nc1ncc(Cc2ccccc2Cl)s1)N1CCN(c2ccc(Cl)cc2)CC1`, the half-inhibitory concentration (IC50) in the data set on THP-1 was determined as 1.11 µM; in the data set with MV4-11 it was 0.16 µM.

For `COc1ccc(Cc2cnc(NC(=O)N3C4CC[C@@H]3CN(c3ccc(Cl)cc3)C4)s2)cc1`, the 50% inhibitory concentration (IC50) in the data set with THP-1 is 0.29 µM; in the data set with MV4-11, 0.31 µM.

Regarding `O=C(Nc1ncc(Cc2ccccc2Br)s1)N1CCN(c2ccccc2)CC1`, the half-inhibitory concentration (IC50) stood at 2.41 µM in the data set with THP-1 and 1.46 µM with MV4-11.

In the case of `O=C(Nc1ncc(Cc2cccc(Br)c2)s1)N1CCN(c2cccc(C(F)(F)F)n2)CC1`, the 50% inhibitory concentration (IC50) with THP-1 and in the data set with MV4-11 was over 20 µM in each case.

Take `COc1ccc(Cc2cnc(NC(=O)N3CCCN(c4ccc(Cl)cc4)CC3)s2)cc1`: the IC50 in the data set with THP-1 came out at 0.27 µM; in the data set on MV4-11, 0.31 µM.

For `O=C(Nc1ncc(Cc2cccc(Br)c2)s1)N1CCN(c2ccc([N+](=O)[O-])cc2)CC1`, the IC50 was over 20 µM in the data set with THP-1 and 2.05 µM in the data set with MV4-11.

On to `Cc1ccc(N2CCN(C(=O)Nc3ncc(Cc4cccc(Br)c4)s3)CC2)cc1`, for which the half-inhibitory concentration (IC50) was 3.48 µM with THP-1 and 2.88 µM with MV4-11.

Consider `O=C(Nc1ncc(Cc2cccc(Br)c2)s1)N1CCN(c2ccccc2Cl)CC1`, for which the half-maximal inhibitory concentration (IC50) is 1.61 µM in the data set on THP-1 and 1.32 µM in the data set on MV4-11.

Take `O=C(Nc1ncc(Cc2cccc(Br)c2)s1)N1CCN(c2ccc(F)cc2)CC1`: the concentration for half-maximal inhibition (IC50) came out at 0.19 µM in the data set with THP-1 and 0.17 µM in the data set with MV4-11.

Broadly, the IC50 is the concentration that inhibits the measured activity by half.

Values taken from ChEMBL document CHEMBL6087417, “The synthesis and antileukemic activity of 5-substituted thiazolyl urea derivatives” (Bioorg Med Chem Lett, 2025).
